Assay [1] concerns ABUTH. In words: Pre-emergence action against ABUTH. The assay is classed as in vivo, Abutilon theophrasti. The following applies: Abutilon theophrasti, 504 h; pre-emergence, dosage 320 g/ha, scored visually after 3 weeks vs untreated controls; read-out: Pre-emergence action against ABUTH (herbicidal activity). An outline of the steps: (§1)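 Seeds sown in sandy loam in wood-fiber pots and covered with soil. Greenhouse growth; visual damage scored after 3 weeks versus untreated controls (100% = dead, 0% = like control).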

Another assay concerns SETVI. In words: Post-emergence action against SETVI. The assay is classed as in vivo, Setaria viridis. Particulars: Setaria viridis, 504 h; post-emergence, dosage 80 g/ha, visual assessment about 3 weeks after treatment vs untreated controls; read-out: Post-emergence action against SETVI (herbicidal action in percent). The procedure, abridged:
(§2)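 Post-emergence foliar spray on greenhouse plants at the one-leaf stage, using wettable-powder or emulsion-concentrate formulations in water (600 to […], plus 0.2% wetting agent). Damage scored by eye roughly 3 weeks later against untreated plants: 0% = like control, 100% = dead.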

Assay [2] concerns AVEFA. In words: Pre-emergence action against AVEFA. The following applies: Avena fatua, 504 h, dosage 320 g/ha, scored visually after 3 weeks vs untreated controls, read-out: Pre-emergence action against AVEFA (herbicidal activity). Format: in vivo, Avena fatua. An outline of the steps: as §1
The test system of assay [3] is POLCO. In words: Post-emergence action against POLCO. The assay is classed as in vivo, Polygonum convolvulus. Particulars: Fallopia convolvulus, 504 h; post-emergence, dosage 80 g/ha. An outline of the steps:
as §2

Another assay concerns AMARE. In words: Pre-emergence action against AMARE. The assay is classed as in vivo, Amaranthus retroflexus. Particulars: Amaranthus retroflexus, 504 h; pre-emergence, dosage 320 g/ha, scored visually after 3 weeks vs untreated controls; read-out: Pre-emergence action against AMARE (herbicidal activity). An outline of the steps: as §1
For assay [4], the system named is AVEFA. In words: Post-emergence action against AVEFA. Particulars: Avena fatua, 504 h; post-emergence, dosage 80 g/ha, visual assessment about 3 weeks after treatment vs untreated controls; read-out: Post-emergence action against AVEFA (herbicidal action in percent). Format: in vivo, Avena fatua. An outline of the steps:
as §2

Assay [5] relates to POLCO. In words: Pre-emergence action against POLCO. Format: in vivo, Polygonum convolvulus. Particulars: Fallopia convolvulus, 504 h; Dosage 320 g/ha, pre-emergence. The procedure, abridged:
as §1

Assay [6] has as its system ECHCG. In words: Post-emergence action against ECHCG. Particulars: Echinochloa crus-galli, 504 h; post-emergence, dosage 80 g/ha, visual assessment about 3 weeks after treatment vs untreated controls; read-out: Post-emergence action against ECHCG (herbicidal action in percent). Format: in vivo, Echinochloa crus-galli. The procedure, abridged: as §2
Assay [7] concerns STEME. In words: Post-emergence action against STEME. Format: in vivo, Stellaria media. Particulars: Stellaria media, 504 h; post-emergence, dosage 80 g/ha. The procedure, abridged: as §2
A further assay has as its system PHBPU. In words: Post-emergence action against PHBPU. Format: in vivo, Pharbitis purpurea. The following applies: Ipomoea purpurea, 504 h; post-emergence, dosage 80 g/ha. The procedure, abridged:
as §2

The test system of assay [8] is MATIN. In words: Pre-emergence action against MATIN. Format: in vivo, Matricaria inodora. The following applies: Tripleurospermum inodorum, 504 h; Dosage 320 g/ha, pre-emergence. An outline of the steps:
as §1

Assay [9] deals with STEME. In words: Pre-emergence action against STEME. The assay is classed as in vivo, Stellaria media. The following applies: Stellaria media, 504 h; Dosage 320 g/ha, pre-emergence. An outline of the steps:
as §1

For assay [10], the system named is VIOTR. In words: Pre-emergence action against VIOTR. Format: in vivo, Viola tricolor. Particulars: Viola tricolor, 504 h; Dosage 320 g/ha, pre-emergence. An outline of the steps: as §1
Assay [11] has as its system ECHCG. In words: Pre-emergence action against ECHCG. Format: in vivo, Echinochloa crus-galli. The following applies: Echinochloa crus-galli, 504 h; pre-emergence, dosage 320 g/ha, scored visually after 3 weeks vs untreated controls; read-out: Pre-emergence action against ECHCG (herbicidal activity). The procedure, abridged: as §1
The test system of assay [12] is VIOTR. In words: Post-emergence action against VIOTR. Particulars: Viola tricolor, 504 h; post-emergence, dosage 80 g/ha. The assay is classed as in vivo, Viola tricolor. An outline of the steps:
as §2

In assay [13] the test system is ABUTH. In words: Post-emergence action against ABUTH. The assay is classed as in vivo, Abutilon theophrasti. Particulars: Abutilon theophrasti, 504 h; post-emergence, dosage 80 g/ha, visual assessment about 3 weeks after treatment vs untreated controls; read-out: Post-emergence action against ABUTH (herbicidal action in percent). The procedure, abridged:
as §2

Assay [14] relates to MATIN. In words: Post-emergence action against MATIN. The assay is classed as in vivo, Matricaria inodora. Particulars: Tripleurospermum inodorum, 504 h; post-emergence, dosage 80 g/ha, visual assessment about 3 weeks after treatment vs untreated controls; read-out: Post-emergence action against MATIN (herbicidal action in percent). The procedure, abridged:
as §2

For assay [15], the system named is CYPES. In words: Post-emergence action against CYPES. Format: in vivo, Cyperus esculentus. Particulars: Cyperus esculentus, 504 h; post-emergence, dosage 80 g/ha, visual assessment about 3 weeks after treatment vs untreated controls; read-out: Post-emergence action against CYPES (herbicidal action in percent). An outline of the steps: as §2
Assay [16] relates to CYPES. In words: Pre-emergence action against CYPES. The assay is classed as in vivo, Cyperus esculentus. Particulars: Cyperus esculentus, 504 h; pre-emergence, dosage 320 g/ha, scored visually after 3 weeks vs untreated controls; read-out: Pre-emergence action against CYPES (herbicidal activity). An outline of the steps:
as §1

Regarding `CCCC(=O)c1c(C(F)(F)F)ccc(C(=O)Nc2nnnn2C)c1C` [1-16], the pest or weed control at 320 g/ha came to 100% in the assay with ABUTH [1]; 90% with AVEFA [2]; 100% in the assay with AMARE; 80% in the assay with POLCO [5]; 100% in the assay on MATIN [8]; 100% in the assay with STEME [9]. For the same compound, the pest or weed control at 320 g/ha in the assay on VIOTR [10] and in the assay with ECHCG [11] was 100% in each case. The pest or weed control at 80 g/ha in the assay on SETVI worked out at 90%; in the assay on POLCO [3], 100%; in the assay on AVEFA [4], 90%; with ECHCG [6], 90%; with STEME [7], 100%; with PHBPU, 100%. Besides, the pest or weed control at 80 g/ha in the assay on VIOTR [12], with ABUTH [13] and with MATIN [14] was 100% throughout.

With `COc1c(C(=O)Nc2nnnn2C)ccc(C(F)(F)F)c1C(=O)C1CC1` [1-50], the pest or weed control at 320 g/ha with ABUTH [1] worked out at 100%; in the assay on AVEFA [2], 100%; in the assay on AMARE, 100%; with POLCO [5] it was 90%; with CYPES [16] it was 100%; with MATIN [8] it was 100%. Also, the pest or weed control at 320 g/ha in the assay with STEME [9], in the assay with VIOTR [10] and with ECHCG [11] was 100% each time. The pest or weed control at 80 g/ha in the assay on SETVI stood at 100%; in the assay on CYPES [15] it was 80%; in the assay on POLCO [3], 100%; in the assay on AVEFA [4], 100%; with ECHCG [6], 90%; in the assay with STEME [7] it was 100%. Besides, the pest or weed control at 80 g/ha in the assay with PHBPU, in the assay with VIOTR [12], in the assay with ABUTH [13] and with MATIN [14] was 100% each time.

Consider `CSc1c(C(=O)Nc2nnnn2C)ccc(C(F)(F)F)c1C(=O)C1CC1` [1-60], for which the pest or weed control at 320 g/ha in the assay with ABUTH [1], with AVEFA [2], in the assay on AMARE, with POLCO [5], in the assay with CYPES [16] and in the assay on MATIN [8] was 100% in each case. Moreover, the pest or weed control at 320 g/ha with STEME [9], in the assay with VIOTR [10] and in the assay on ECHCG [11] was 100% each time. For the same compound, the pest or weed control at 80 g/ha in the assay with SETVI was 100%; in the assay with CYPES [15] it was 90%; with POLCO [3], 100%; in the assay with AVEFA [4] it was 100%; with ECHCG [6] it was 100%; in the assay on STEME [7], 100%. For the same compound, the pest or weed control at 80 g/ha is 90% in the assay with PHBPU, 90% with VIOTR [12], 90% in the assay on ABUTH [13] and 100% in the assay on MATIN [14].

Regarding `CSc1c(C(=O)Nc2nnnn2C)ccc(C(F)F)c1C(=O)C1CC1` [1-67], the pest or weed control at 320 g/ha is 100% with ABUTH [1]; 80% in the assay on AVEFA [2]; 100% in the assay with AMARE; 100% in the assay on POLCO [5]; 90% in the assay with CYPES [16]; 100% in the assay on MATIN [8]. In addition, the pest or weed control at 320 g/ha with STEME [9], in the assay with VIOTR [10] and in the assay on ECHCG [11] was 100% in each case. Also, the pest or weed control at 80 g/ha came to 100% in the assay with SETVI; 90% with CYPES [15]; 100% in the assay with POLCO [3]; 100% in the assay on AVEFA [4]; 100% with ECHCG [6]; 100% in the assay on STEME [7]. Moreover, the pest or weed control at 80 g/ha in the assay on PHBPU was 80%; with VIOTR [12], 100%; with ABUTH [13] it was 100%; with MATIN [14], 100%.

Take `CCC(=O)c1c(C(F)F)ccc(C(=O)Nc2nnnn2C)c1Cl` [1-165]: the pest or weed control at 320 g/ha in the assay with ABUTH [1] worked out at 100%; in the assay on AVEFA [2], 100%; with AMARE, 100%; with POLCO [5] it was 90%; in the assay on MATIN [8], 100%; with STEME [9], 100%. In addition, the pest or weed control at 320 g/ha with VIOTR [10] and in the assay with ECHCG [11] was 100% each time. Further, the pest or weed control at 80 g/ha in the assay with SETVI worked out at 100%; with POLCO [3] it was 100%; in the assay with AVEFA [4] it was 90%; with ECHCG [6] it was 90%; in the assay on STEME [7], 100%; in the assay with PHBPU, 90%. Further, the pest or weed control at 80 g/ha with VIOTR [12], in the assay with ABUTH [13] and in the assay on MATIN [14] was 90% throughout.

Consider `CC(=O)c1c(I)ccc(C(=O)Nc2nnnn2C)c1Cl` [1-192], for which the pest or weed control at 320 g/ha with ABUTH [1] was 100%; with AVEFA [2], 100%; in the assay with AMARE, 100%; with POLCO [5], 80%; in the assay with CYPES [16], 90%; with MATIN [8] it was 100%. Moreover, the pest or weed control at 320 g/ha with STEME [9], in the assay with VIOTR [10] and in the assay with ECHCG [11] was 100% throughout. Besides, the pest or weed control at 80 g/ha worked out at 100% in the assay with SETVI; 80% in the assay on CYPES [15]; 100% in the assay with POLCO [3]; 80% in the assay on AVEFA [4]; 100% in the assay on ECHCG [6]; 80% in the assay with PHBPU. Moreover, the pest or weed control at 80 g/ha in the assay with VIOTR [12], in the assay on ABUTH [13] and in the assay on MATIN [14] was 100% in each case.

Take `Cn1nnnc1NC(=O)c1ccc(C(F)(F)F)c(C(=O)C2CC2)c1C1CC1` [1-233]: the pest or weed control at 320 g/ha in the assay on ABUTH [1] worked out at 100%; in the assay on AVEFA [2], 100%; with AMARE it was 100%; in the assay on POLCO [5] it was 80%; in the assay on MATIN [8], 100%; in the assay on STEME [9], 100%. Further, the pest or weed control at 320 g/ha with VIOTR [10] and in the assay with ECHCG [11] was 100% each time. Besides, the pest or weed control at 80 g/ha came out at 90% with SETVI; 90% with POLCO [3]; 90% with AVEFA [4]; 100% in the assay with ECHCG [6]; 90% with STEME [7]; 100% in the assay with PHBPU. Also, the results for the pest or weed control at 80 g/ha in the assay on VIOTR [12], in the assay on ABUTH [13] and with MATIN [14] were 90%, 100% and 90%, respectively.

For the origin of these results see patent publication US11051515B2, “3-acyl-benzamides and their use as herbicides” (Bayer Aktiengesellschaft, priority 2017, dated 2021).
